Assay results published in patent publication US20260248800A1, “FERROPTOSIS INHIBITORS AND USES THEREOF” (UNIVERSITY OF OTTAWA, priority 2022, published 2026).
Read-outs that look alike come from different tables or passages of the source. Marks after values point to notes of the source that are not given here.

What was measured:
[1] = tested on: Pfa-1 mouse embryonic fibroblasts (MEFs)
[2] = tested on: MEFs; settings: inhibition of RSL3-induced ferroptosis in MEFs; Shah et al., 2017; cited from earlier work
[3] = at 37° C. in PhCl; literature; cited from earlier work
[4] = Liver microsome stability assay; settings: pH 7.4
[5] = tested on: Pfa-1 mouse embryonic fibroblasts (MEFs); assay: cells; settings: Fibroblast
[6] = MeOAMVN-initiated co-autoxidation of STY-BODIPY and egg PC liposomes (FENIX); type: biochemical; settings: for n (radical-trapping stoichiometry): MeOAMVN-initiated co-autoxidation of STY-BODIPY and egg PC liposomes; for predicted increase in kinh^lip relative to PNX: predicted/estimated kinh^lip vs PNX
[7] = mouse, microsomes
[8] = H-bond acidity (α2^H) of the RTA by 1H NMR; type: physicochemical; settings: estimated from the 1H NMR chemical shift difference of the amine proton in DMSO-d6 and benzene-d6
[9] = inhibited autoxidation of styrene in chlorobenzene; cited from earlier work
[10] = in dilinoleoyl phosphatidylcholine (PC) liposomes; cited from earlier work
[11] = Table 6, from survival curve of RSL3 induced ferroptosis of pfa-1 MEFS
[12] = read-out: Pfa-1 MEF Ferroptosis EC50, RSL3-induced cell death (150 nM for 5 hours), AquaBluer
[13] = RSL3-induced cell death (150 nM for 5 hours), AquaBluer
[14] = 5 h, read-out: Pfa-1 MEF Ferroptosis EC50, RSL3-induced cell death (150 nM for 5 hours), AquaBluer
[15] = apparent inhibition rate constant, MeOAMVN-initiated autoxidation of egg PC liposomes, determined by fluorescence
[16] = apparent inhibition rate constant, MeOAMVN-initiated autoxidation of egg PC liposomes, determined by absorbance (STY-BODIPY 10-20 μM, 565 nm)
[17] = measured in MeOAMVN-initiated autoxidation of egg PC liposomes
[18] = predicted from log kinh^0, α2^H and β2^H=0.69 using Eq. 4 (too reactive to be determined directly)

α2^H [8]	Compound	EC50 [1, 12] [nM]	Pfa-1 MEF Ferroptosis EC50 [1, 13]	EC50 [5, 14] [nM]	EC50 [5, 11] [nM]	n (radical-trapping stoichiometry) [6]	kinh^lip [6, 15]	also measured
–	Clc1cccc(CN=C2Nc3ccccc3NC23CCNCC3)c1 [Lip-1, liproxstatin-1]	18	–	–	–	–	–	EC50 [1, 11]: 18 ± 1 nM; EC50 [2]: 35 nM; kinh [3]: 200000 M⁻¹ s⁻¹; t1/2 ([4]; BALB/c mouse liver microsomes increased (1.0 mg/mL), 1 mM NADPH, 37° C., 10 μM compound (Verapamil 1 μM)): (133 ± 8.4) ^d min
–	CC(C)(C)c1ccc2c(c1)Nc1ccc(C(F)(F)F)cc1O2 [Compound 11, 2-tert-Butyl-7-trifluoromethylphenoxazine]	–	single-digit nanomolar potency	3.6 ± 0.2	3.6 ± 0.2	2.6 ± 0.1	(44 ± 3) 10^5 M^−1s^−1	–
–	CCOC(=O)c1ccc(NC2CCCCC2)c(N)c1 [Fer-1, ferrostatin-1]	27	–	–	–	–	–	EC50 [1, 11]: 27 ± 2 nM; EC50 [2]: 45 nM; kinh [3]: 300000 M⁻¹ s⁻¹; t1/2 [7]: 5.3 ± 0.1 min
–	CC(c1ccc2c(c1)Nc1ccc(C(F)(F)F)cc1O2)S(=O)(=O)N1CCNCC1 (stereo not shown) [Compound 46, 2-(1-(piperazin-1-ylsulfonyl)ethyl)-7-(trifluoromethyl)-OH-phenoxazine]	–	single-digit nanomolar potency	3 ± 0.1	3 ± 0.1	–	–	–
0.51	FC(F)(F)c1ccc2c(c1)Nc1ccccc1O2 [Compound 6, 2-trifluoromethylphenoxazine]	8.8 ± 0.5	–	9	–	3.0 ± 0.1	(75 ± 11) 10^5 M^−1s^−1	–
–	Cc1c(C)c2c(c(C)c1O)CC[C@@](C)(CCC[C@H](C)CCC[C@H](C)CCCC(C)C)O2 [α-TOH, α-tocopherol]	–	–	–	–	–	–	kinh [9]: 3e+06 M⁻¹ s⁻¹; kinh [10]: 6000 M⁻¹ s⁻¹
–	CC(c1ccc2c(c1)Nc1ccc(C(F)(F)F)cc1O2)S(=O)(=O)NCCN(C)C (stereo not shown) [Compound 44, N-(2-(dimethylamino)ethyl)-1-(7-(trifluoromethyl)-10H-phenoxazin-2-yl)ethanesulfonamide]	–	single-digit nanomolar potency	2.2 ± 0.1	2.2 ± 0.1	–	–	–
–	CC(C)(C)c1ccc2c(c1)Oc1cc(C(F)(F)F)ccc1N2 [Compound 10, 3-tert-Butyl-7-trifluoromethylphenoxazine]	–	single-digit nanomolar potency	5.2 ± 0.2	5.2 ± 0.2	2.8 ± 0.1	(55 ± 10) 10^5 M^−1s^−1	–
0.44	FC(F)(F)c1ccc2c(c1)Nc1ccccc1S2 [Compound 25, reference compound]	16 ± 1	–	–	–	2.5 ± 0.1	(19 ± 1) 10^5 M^−1s^−1	–
0.41	Cc1ccc2c(c1)Oc1cc(C)ccc1N2 [Compound 35, 3,7-Dimethylphenoxazine]	5.4 ± 0.2	–	6	–	–	–	kinh^lip [6, 18]: 1180 ^f 10^5 M^−1s^−1; predicted increase in kinh^lip relative to PNX [6]: 5.1 fold
–	CC(C)(C)c1ccc2c(c1)Nc1cc(C(F)(F)F)ccc1O2 [Compound 8, 2-tert-Butyl-8-trifluoromethylphenoxazine]	–	single-digit nanomolar potency	5.6 ± 0.3	5.6 ± 0.3	2.3 ± 0.1	(64 ± 9) 10^5 M^−1s^−1	–
0.34	COc1ccc2c(c1)Sc1cc(OC)ccc1N2 [Compound 32, 3,7-dimethoxyphenothiazine, reference compound]	–	–	9	–	–	–	kinh^lip [6, 18]: 840 ^f 10^5 M^−1s^−1; predicted increase in kinh^lip relative to PNX [6]: 3.8 fold
0.43	Clc1ccc2c(c1)Nc1ccccc1S2 [Compound 24, reference compound]	56 ± 10	–	–	–	2.1 ± 0.1	(39 ± 4) 10^5 M^−1s^−1	–
–	CC(C)(C)c1ccc2c(c1)Oc1ccc(C(F)(F)F)cc1N2 [Compound 7, 3-tert-Butyl-8-trifluoromethylphenoxazine]	–	single-digit nanomolar potency	4.1 ± 0.1	4.1 ± 0.1	2.8 ± 0.1	(75 ± 13) 10^5 M^−1s^−1	–
0.10	Cc1cc(C)c2c(c1)Oc1cc(C)cc(C)c1N2 [Compound 38, 1,3,7,9-Tetramethylphenoxazine]	–	–	7.6 ± 0.2	–	–	–	kinh^lip [6, 18]: 1500 ^f 10^5 M^−1s^−1
0.47	O=Cc1ccc2c(c1)Sc1ccccc1N2 [Compound 27, 3-formylphenothiazine, reference compound]	–	–	140 ± 10	–	2.2 ± 0.1	(14 ± 1) 10^5 M^−1s^−1	–

Compound	α2^H [8]	EC50 [1, 12] [nM]	Pfa-1 MEF Ferroptosis EC50 [1, 13]	EC50 [5, 14] [nM]	EC50 [5, 11] [nM]	n (radical-trapping stoichiometry) [6]	kinh^lip [6, 15]	also measured
c1ccc2c(c1)Nc1ccccc1S2 [Compound 2, phenothiazine, reference compound]	0.38	–	–	24 ± 1	24 ± 1	1.9 ± 0.1	–	kinh^lip [6, 16]: (110 ± 20)^e 10^5 M^−1s^−1; kinh [3]: ~ 8×10^6 M^−1s^−1; half-life at 10 μM ([4]; BALB/c, mouse, liver microsomes): 11.5 min
O=[N+]([O-])c1ccc2c(c1)Sc1cc([N+](=O)[O-])ccc1N2 [Compound 29, 3,7-Dinitrophenothiazine, reference compound]	0.62	≥ 1000	–	> 1000	–	–	(0.41 ± 0.04) 10^5 M^−1s^−1	viability at 1000 µM ([5]; read-out: apparent cell viability): ~50%; kinh^lip [6, 17]: 400 M⁻¹ s⁻¹
c1ccc2c(c1)Nc1ccccc1O2 [Compound 1, phenoxazine, reference compound]	0.44	–	–	–	–	2.0 ± 0.1	–	EC50 [2]: 9 nM; EC50 [5]: 16 ± 1 nM; EC50 ([5]; 5 h, read-out: Pfa-1 MEF Ferroptosis EC50): 16 nM; kinh^lip [6, 16]: (232 ± 23)^e 10^5 M^−1s^−1; kinh^lip [6, 17]: 220000 M⁻¹ s⁻¹; kinh [3]: ~ 4×10^7 M^−1s^−1
